Measurements taken from patent EP0490450A1, “Heterocyclic carboxylic esters, methods for their preparation and their use for the preparation of gastrointestinal medicines” (YAMANOUCHI EUROPE B.V., priority 1990, dated 1992).

Test system: Helicobacter pylori
Experiment: Paper disc inhibition assay on blood agar plates (inhibition zone)
Type: cell-based
Description: The test organisms used in the inhibition assay were fresh isolates of Helicobacter pylori from patients with duodenal ulcer or non-ulcer dyspepsia, except strain NCTC 11637 which originates from a deposit freely available to the public. NCTC 11637 is a metronidazole resistant strain. All strains were stored frozen. For each inhibition assay fresh strains were thawed in a waterbath at 37°C. Helicobacter pylori strains were incubated with shaking (150 rpm) for 48 hours in 10 ml brain heart infusion […] containing 7% fetal calf serum at 37°C under an atmosphere of 10% CO₂, 5% O₂ and 85% N₂. After washing with phosphate buffered saline and centrifugation the pellet was resuspended and diluted until a density of 10-20 nephelometric turbidity units was achieved and subsequently smeared on blood agar plates. A paper disc with a diameter of 7 mm was placed in the centre of the plate. The test compounds were dissolved in dimethylsulfoxide (DMSO) and 20 µl of these solutions were applied to the disc. After three days of culturing at 37°C under microaerophilic conditions the inhibition zone was measured in mm.
Table I. In vitro activity of the compounds according to the invention on Helicobacter pylori. Inhibition zones are given in mm, 7 mm means no activity.
Compound GBR 24156, an ester of penicillin V and metronidazole has, in a concentration of 1.7 µg/ml, been compared with the combination of single substances penicillin V and metronidazole, both in a concentration of 0.85 µg/ml.
Table II. In vitro activity of GBR 24156 compared to the activity of penicillin V and metronidazole on Helicobacter pylori. Inhibition zones are given in mm; 7 mm means no activity.

[1] = Helicobacter pylori, 72 h, H. pylori strain A85, concentration 50 µg/ml, 7 mm means no activity
[2] = Helicobacter pylori, 72 h, H. pylori strain C85, concentration 50 µg/ml, 7 mm means no activity
[3] = Helicobacter pylori, 72 h, H. pylori strain D9, concentration 50 µg/ml (20 µl on 7 mm disc), 7 mm means no activity
[4] = Helicobacter pylori, 72 h, H. pylori strain D20, concentration 50 µg/ml, 7 mm means no activity
[5] = Helicobacter pylori, NCTC11637, 72 h, H. pylori strain NCTC 11637 (metronidazole resistant), concentration 50 µg/ml, 7 mm means no activity
[6] = Helicobacter pylori, 72 h, H. pylori strain A85, concentration 20 µg/ml, 7 mm means no activity
[7] = Helicobacter pylori, 72 h, H. pylori strain B104, concentration 20 µg/ml, 7 mm means no activity
[8] = Helicobacter pylori, 72 h, H. pylori strain C85, concentration 20 µg/ml, 7 mm means no activity
[9] = Helicobacter pylori, 72 h, H. pylori strain D9, concentration 20 µg/ml (20 µl on 7 mm disc), 7 mm means no activity
[10] = Helicobacter pylori, 72 h, H. pylori strain D20, concentration 20 µg/ml, 7 mm means no activity
[11] = Helicobacter pylori, 72 h, H. pylori strain D29, concentration 20 µg/ml, 7 mm means no activity
[12] = Helicobacter pylori, NCTC11637, 72 h, H. pylori strain NCTC 11637 (metronidazole resistant), concentration 20 µg/ml, 7 mm means no activity

| Structure (SMILES) | zone of inhibition at 50 µg/mL [1] [mm] | zone of inhibition at 50 µg/mL [2] [mm] | zone of inhibition at 50 µg/mL [3] [mm] | zone of inhibition at 50 µg/mL [4] [mm] | zone of inhibition at 50 µg/mL [5] [mm] | zone of inhibition at 20 µg/mL [6] [mm] | zone of inhibition at 20 µg/mL [7] [mm] | zone of inhibition at 20 µg/mL [8] [mm] | zone of inhibition at 20 µg/mL [9] [mm] | zone of inhibition at 20 µg/mL [10] [mm] | zone of inhibition at 20 µg/mL [11] [mm] | zone of inhibition at 20 µg/mL [12] [mm] | further results |
| --- | --- | --- | --- | --- | --- | --- | --- | --- | --- | --- | --- | --- | --- |
| Cc1ncc([N+](=O)[O-])n1CCOC(=O)COC(=O)C(C)(C)O/N=C(\C(=O)N[C@@H]1C(=O)N(S(=O)(=O)O)[C@H]1C)c1csc(N)n1 [GBR 24165] | 29 | 10 | 36 | 12 | 33 |  |  |  |  |  |  |  |  |
| Cc1ncc([N+](=O)[O-])n1CCOC(=O)OCOC(=O)[C@@H]1N2C(=O)[C@@H](NC(=O)COc3ccccc3)[C@H]2SC1(C)C [GBR 24158, [2-(2-Methyl-5-nitroimidazol-1-yl)ethoxy]carbonyloxymethyl (3S,5R,6R)-2,2-dimethyl-6-phenoxyacetamidopenam-3-carboxylate] |  |  |  |  |  | 19 | 27 | 29 | 47 | 34 | 20 | 15 |  |
| Cc1ncc([N+](=O)[O-])n1CCOC(=O)COC(=O)[C@@H]1N2C(=O)[C@@H](NC(=O)[C@H](N)c3ccc(O)cc3)[C@H]2SC1(C)C [GBR 24208, [2-(2-Methyl-5-nitroimidazol-1-yl)ethoxy]carbonylmethyl(3S,5R,6R)-6-[(R)-2-amino-2-(4-hydroxyphenyl)acetamido]-2,2-dimethylpenam-3-carboxylate] |  |  |  |  |  |  |  |  |  |  |  |  | zone of inhibition at 268 µg/mL (Helicobacter pylori, 72 h, H. pylori strain A85, concentration 268 µg/ml, 7 mm means no activity): 10 mm; zone of inhibition at 268 µg/mL (Helicobacter pylori, 72 h, H. pylori strain D9, concentration 268 µg/ml (20 µl on 7 mm disc), 7 mm means no activity): 15 mm; zone of inhibition at 268 µg/mL (Helicobacter pylori, NCTC11637, 72 h, H. pylori strain NCTC 11637 (metronidazole resistant), concentration 268 µg/ml, 7 mm means no activity): 10 mm |
| Cc1ncc([N+](=O)[O-])n1CCOC(=O)COC(=O)[C@@H]1N2C(=O)[C@@H](NC(=O)COc3ccccc3)[C@H]2SC1(C)C [GBR 24157, [2-(2-Methyl-5-nitroimidazol-1-yl)ethoxy] carbonylmethyl (3S,5R,6R)-2,2-dimethyl-6-phenoxyacetamidopenam-3-carboxylate] |  |  |  |  |  | 10 | 11 | 14 | 28 | 24 | 13 | 7 |  |
| Cc1ncc([N+](=O)[O-])n1CCOC(=O)[C@@H]1N2C(=O)[C@@H](NC(=O)COc3ccccc3)[C@H]2SC1(C)C [GBR 24156, 2-(2-Methyl-5-nitroimidazol-1-yl)ethyl (3S,5R,6R)-2,2-dimethyl-6-phenoxy acetamidopenam-3-carboxylate] | 60 | 22 | 48 | 51 | 41 |  |  |  |  |  |  |  | in vitro growth inhibition (in words) (Helicobacter pylori NCTC 11637, known for resistance against metronidazole): able to inhibit in vitro growth; zone of inhibition at 50 µg/mL (Helicobacter pylori, 72 h, H. pylori strain 88-A-13, concentration 50 µg/ml, 7 mm means no activity): 30 mm; zone of inhibition at 50 µg/mL (Helicobacter pylori, 72 h, H. pylori strain B104, concentration 50 µg/ml, 7 mm means no activity): 42 mm; zone of inhibition at 50 µg/mL (Helicobacter pylori, 72 h, H. pylori strain D29, concentration 50 µg/ml, 7 mm means no activity): 77 mm; zone of inhibition at 1.7 µg/mL (Helicobacter pylori, NCTC11637, 72 h, H. pylori strain NCTC 11637, concentration 1.7 µg/ml, 7 mm means no activity): 19 mm |
| Cc1ncc([N+](=O)[O-])n1CCOC(=O)C(C)(C)O/N=C(\C(=O)N[C@@H]1C(=O)N(S(=O)(=O)O)[C@H]1C)c1csc(N)n1 [GBR 24164] |  |  |  |  |  |  |  |  |  |  |  |  | zone of inhibition at 100 µg/mL (Helicobacter pylori, 72 h, H. pylori strain B104, concentration 100 µg/ml, 7 mm means no activity): 20 mm; zone of inhibition at 100 µg/mL (Helicobacter pylori, 72 h, H. pylori strain C85, concentration 100 µg/ml, 7 mm means no activity): 7 mm; zone of inhibition at 100 µg/mL (Helicobacter pylori, 72 h, H. pylori strain D9, concentration 100 µg/ml (20 µl on 7 mm disc), 7 mm means no activity): 16 mm; zone of inhibition at 100 µg/mL (Helicobacter pylori, 72 h, H. pylori strain D20, concentration 100 µg/ml, 7 mm means no activity): 7 mm; zone of inhibition at 100 µg/mL (Helicobacter pylori, 72 h, H. pylori strain D29, concentration 100 µg/ml, 7 mm means no activity): 12 mm; zone of inhibition at 100 µg/mL (Helicobacter pylori, NCTC11637, 72 h, H. pylori strain NCTC 11637 (metronidazole resistant), concentration 100 µg/ml, 7 mm means no activity): 7 mm |
